# Source: patent US20230241050A1, “APPLICATIONS OF HPK1 KINASE INHIBITOR IN PREVENTING AND/OR TREATING ANIMAL PATHOGEN INFECTION” (ZHUHAI YUFAN BIOTECHNOLOGIES CO., LTD, priority 2020, published 2023)
# Legend:
# [1] = tested on: feline infectious peritonitis (FIP), feline coronavirus positive; assay: Treatment of a cat with recurrent feline infectious peritonitis (Example 1): daily clinical observation, body weight, chest X-ray; type: in vivo; conditions: for Food intake: D0: Decreased intake - 3; for Mental state: D0: Listless - 3; for Defecation condition / Respiratory state: D0: Normal - 5; for Body temperature Afternoon: D0 value 38.5; for body weight: 2.5 kg at enrollment (D0)
# Experimental: Lele, a British shorthair cat, 8 months old, female, unneutered, weighing 2.5 kg. The cat had symptoms of elevated body temperature, mental depression, anorexia, and enlarged abdominal circumference in January, 2020. One week later, the cat was admitted. On January 18, the cat was diagnosed with feline infectious peritonitis (FIP) positive. After being treated with GS-441524 for 3 days, the cat was then given furosemide, Synulox®, prednisolone and itraconazole (P.O., q24h, 10 mg/kg) for 1 month. The drugs were discontinued after ascites regressed. […] The cat was enrolled on April 8, and was treated with the drug of the present invention at 2.0 mg/kg (SC, q24h) on days 1-14 (D1-14). Proper supportive treatments were given at the same time, including adjuvant treatment such as Moringa (a hepatoprotective drug), Lysinphirst (lysine) and Doctor Dolittle® (lactoferrin).
# The pharmaceutically active compound described above is a pure powder have the following structure. The compound was added to a 0.9% normal saline (50 mL of endotoxin-free water and 0.45 g of NaCl), and the resulting mixture was uniformly mixed and filtered through a filter membrane to give a clarified solution. The diluted compound was stored in a plastic-sealed sterile vial, stored in a refrigerator at 4° C., gently brought to room temperature before injection, and administered using a disposable syringe. The injection ranged across the back, starting from 2 cm posterior to the scapula to the middle of the lumbar spine, half of the distance of the adjacent chest to flank.
# The treatment was given by injection in the morning every day, body temperature, appetite, mental state and respiratory state were measured and evaluated at 15:00 pm, and urination and defecation conditions were recorded.
# The body weight increased by 9% during and after the treatment.
# [2] = tested on: feline infectious peritonitis (FIP); assay: Clinical survival of cats with clinically confirmed FIP, treatment group vs control group (Example 2); type: in vivo, cat; conditions: 14 days; 2.0 mg/kg SC q24h D1-D14 plus supportive treatment, 7 cats vs 8 control cats; both pre-treated with GS-441524 for 3 days; Log Rank and Breslow tests, P < 0.05
# Description: A total of 15 cats with clinically confirmed FIP were enrolled, with hydrothorax/ascites, positive CT value by PCR, and no neurological symptoms. 8 cats were allocated into the control group, and 7 cats were allocated into the treatment group.
# The groups were pre-treated with GS-441524 for 3 days. For the control group, necessary supportive treatment was given on D1-D14. For the treatment group, after 3 days of observation, necessary supportive treatment and the drug of the present invention (2.0 mg/kg, SC, q24 h) were given on D1-D14.
# The occurrence of death or neurological symptoms was judged as clinical death, and the clinical survival curve was plotted after 14 days.
smiles,measurement,setting,value
"CN1CCC(c2ncc(-c3cnc(N)c(OCc4cccc(C#CC(C)(C)O)c4)c3)s2)CC1 [the drug of the present invention, 4-(3-{2-amino-5-[2-(1-methyl-piperidin-4-yl)thiazol-5-yl]pyridin-3-yloxymethyl}phenyl)-2-methyl-but-3-yn-2-ol]",Food intake,"[1]; D1 (4-9), 2.0 mg/kg SC q24h",Decreased intake - 3
same,Mental state,"[1]; D1 (4-9), 2.0 mg/kg SC q24h",Slightly improved - 3.5
same,Defecation condition,"[1]; D1 (4-9), 2.0 mg/kg SC q24h",Normal
same,Respiratory state,"[1]; D1 (4-9), 2.0 mg/kg SC q24h",Normal
same,Body temperature Afternoon,"[1]; D1 (4-9), 2.0 mg/kg SC q24h",38.6 °C
same,Food intake,"[1]; D2 (4-10), 2.0 mg/kg SC q24h",Improved - 4
same,Mental state,"[1]; D2 (4-10), 2.0 mg/kg SC q24h",Improved - 4
same,Defecation condition,"[1]; D2 (4-10), 2.0 mg/kg SC q24h",Normal
same,Respiratory state,"[1]; D2 (4-10), 2.0 mg/kg SC q24h",Normal
same,Body temperature Afternoon,"[1]; D2 (4-10), 2.0 mg/kg SC q24h",38.1 °C
same,Food intake,"[1]; D3 (4-11), 2.0 mg/kg SC q24h",Good - 5
same,Mental state,"[1]; D3 (4-11), 2.0 mg/kg SC q24h",Good - 5
same,Defecation condition,"[1]; D3 (4-11), 2.0 mg/kg SC q24h",Normal
same,Respiratory state,"[1]; D3 (4-11), 2.0 mg/kg SC q24h",Normal
same,Body temperature Afternoon,"[1]; D3 (4-11), 2.0 mg/kg SC q24h",38 °C
same,Food intake,"[1]; D4 (4-12), 2.0 mg/kg SC q24h",Good
same,Mental state,"[1]; D4 (4-12), 2.0 mg/kg SC q24h",Good
same,Defecation condition,"[1]; D4 (4-12), 2.0 mg/kg SC q24h",Normal
same,Respiratory state,"[1]; D4 (4-12), 2.0 mg/kg SC q24h",Normal
same,Body temperature Afternoon,"[1]; D4 (4-12), 2.0 mg/kg SC q24h",38.3 °C
same,Food intake,"[1]; D5 (4-13), 2.0 mg/kg SC q24h",Good
same,Mental state,"[1]; D5 (4-13), 2.0 mg/kg SC q24h",Good
same,Defecation condition,"[1]; D5 (4-13), 2.0 mg/kg SC q24h",Normal
same,Respiratory state,"[1]; D5 (4-13), 2.0 mg/kg SC q24h",Normal
same,Body temperature Afternoon,"[1]; D5 (4-13), 2.0 mg/kg SC q24h",38.3 °C
same,Food intake,"[1]; D6 (4-14), 2.0 mg/kg SC q24h",Good
same,Mental state,"[1]; D6 (4-14), 2.0 mg/kg SC q24h",Good
same,Defecation condition,"[1]; D6 (4-14), 2.0 mg/kg SC q24h",Normal
same,Respiratory state,"[1]; D6 (4-14), 2.0 mg/kg SC q24h",Normal
same,Body temperature Afternoon,"[1]; D6 (4-14), 2.0 mg/kg SC q24h",38.3 °C
same,body weight,"[1]; D7 (4-15), 2.0 mg/kg SC q24h",2.75 kg body weight
same,Food intake,"[1]; D7 (4-15), 2.0 mg/kg SC q24h",Good
same,Mental state,"[1]; D7 (4-15), 2.0 mg/kg SC q24h",Good
same,Defecation condition,"[1]; D7 (4-15), 2.0 mg/kg SC q24h",Normal
same,Respiratory state,"[1]; D7 (4-15), 2.0 mg/kg SC q24h",Normal
same,Body temperature Afternoon,"[1]; D7 (4-15), 2.0 mg/kg SC q24h",38.1 °C
same,Food intake,"[1]; D8 (4-16), 2.0 mg/kg SC q24h",Good
same,Mental state,"[1]; D8 (4-16), 2.0 mg/kg SC q24h",Good
same,Defecation condition,"[1]; D8 (4-16), 2.0 mg/kg SC q24h",Normal
same,Respiratory state,"[1]; D8 (4-16), 2.0 mg/kg SC q24h",Normal
same,Body temperature Afternoon,"[1]; D8 (4-16), 2.0 mg/kg SC q24h",38 °C
same,Food intake,"[1]; D9 (4-17), 2.0 mg/kg SC q24h",Good
same,Mental state,"[1]; D9 (4-17), 2.0 mg/kg SC q24h",Good
same,Defecation condition,"[1]; D9 (4-17), 2.0 mg/kg SC q24h",Normal
same,Respiratory state,"[1]; D9 (4-17), 2.0 mg/kg SC q24h",Normal
same,Body temperature Afternoon,"[1]; D9 (4-17), 2.0 mg/kg SC q24h",38.2 °C
same,Food intake,"[1]; D10 (4-18), 2.0 mg/kg SC q24h",Good
same,Mental state,"[1]; D10 (4-18), 2.0 mg/kg SC q24h",Good
same,Defecation condition,"[1]; D10 (4-18), 2.0 mg/kg SC q24h",Normal
same,Respiratory state,"[1]; D10 (4-18), 2.0 mg/kg SC q24h",Normal
same,Body temperature Afternoon,"[1]; D10 (4-18), 2.0 mg/kg SC q24h",38.3 °C
same,Food intake,"[1]; D11 (4-19), 2.0 mg/kg SC q24h",Good
same,Mental state,"[1]; D11 (4-19), 2.0 mg/kg SC q24h",Good
same,Defecation condition,"[1]; D11 (4-19), 2.0 mg/kg SC q24h",Normal
same,Respiratory state,"[1]; D11 (4-19), 2.0 mg/kg SC q24h",Normal
same,Body temperature Afternoon,"[1]; D11 (4-19), 2.0 mg/kg SC q24h",38.4 °C
same,Food intake,"[1]; D12 (4-20), 2.0 mg/kg SC q24h",Good
same,Mental state,"[1]; D12 (4-20), 2.0 mg/kg SC q24h",Good
same,Defecation condition,"[1]; D12 (4-20), 2.0 mg/kg SC q24h",Normal
same,Respiratory state,"[1]; D12 (4-20), 2.0 mg/kg SC q24h",Normal
same,Body temperature Afternoon,"[1]; D12 (4-20), 2.0 mg/kg SC q24h",38.5 °C
same,Body temperature Morning,"[1]; D13 (4-21), 2.0 mg/kg SC q24h",38.9 °C
same,Food intake,"[1]; D13 (4-21), 2.0 mg/kg SC q24h",Good
same,Mental state,"[1]; D13 (4-21), 2.0 mg/kg SC q24h",Good
same,Defecation condition,"[1]; D13 (4-21), 2.0 mg/kg SC q24h",Normal
same,Respiratory state,"[1]; D13 (4-21), 2.0 mg/kg SC q24h",Normal
same,Body temperature Afternoon,"[1]; D13 (4-21), 2.0 mg/kg SC q24h",38.5 °C
same,Body temperature Morning,"[1]; D14 (4-22), 2.0 mg/kg SC q24h",38.4 °C
same,body weight,"[1]; D14 (4-22), 2.0 mg/kg SC q24h",2.75 kg body weight
same,Food intake,"[1]; D14 (4-22), 2.0 mg/kg SC q24h",Good
same,Mental state,"[1]; D14 (4-22), 2.0 mg/kg SC q24h",Good
same,Defecation condition,"[1]; D14 (4-22), 2.0 mg/kg SC q24h",Normal
same,Respiratory state,"[1]; D14 (4-22), 2.0 mg/kg SC q24h",Normal
same,Body temperature Afternoon,"[1]; D14 (4-22), 2.0 mg/kg SC q24h",38.4 °C
same,"clinical response (appetite, mental state, weight)","[1]; after 2 weeks of treatment, 2.0 mg/kg SC q24h","remarkable clinical response with improved appetite and mental state, and weight gain"
same,body weight increase,"[1]; during and after the treatment (D1-14, 2.0 mg/kg SC q24h)",9%
same,hydrothorax (chest X-ray),"[1]; since about 7 days after the treatment, 2.0 mg/kg SC q24h",completely regressed
same,body temperature maintained in the normal range,"[1]; throughout the treatment (D1-14, 2.0 mg/kg SC q24h), no fever at enrollment",38-38.5 °C
same,"clinical survival curve (death or neurological symptoms = clinical death), treatment group vs control group",[2],significant difference
